Key:
Format in all cases: in vivo, mouse
mice primed to rch1 = experiment: Duration of peptide inhibitory effects on T cell function in rCh1 primed mice; conditions: FIG. 25
Method: Mice were injected with recombinant TRFP Chain 1 (rCh1) in Incomplete Freund's Adjuvant. Three months later all the mice were primed to rch1 as judged by their development of significant titers of anti-rch1 antibody.

[1] = tested on: BDF1 mice preimmunized with TRFP; experiment: Peptide Y specific antibody ELISA of sera from TRFP-preimmunized, peptide Y tolerized mice
Method: The serum was separated as previously described. […] Each incubation step in this protocol lasts 1 hour at 37° C. The wells were incubated with gelatin in PBS for blocking excess binding to the plate. Sera were diluted in PBS in a range from 1/300 to 1/8100 and incubated in triplicate on the plates. After rinsing, the bound mouse antibody was detected by incubation with biotinylated goat anti-mouse IgG (Southern Biotechnology Associates). Streptavidin conjugated to horse radish peroxidase (Southern Biotechnology Associates) was added to detect antigen bound biotinylated antibody-complexes. […] The data from the other sera dilutions were consistent with the data from the 1/900 sera dilution.
The sera were assayed for the presence of peptide Y specific IgM, IgE, and IgG isotypes. The ELISA used to detect antigen specific binding of IgG1, IgG2a, IgG2b, IgG3 and IgM isotypes were similar to the IgG assay described above with the only difference being the biotinylated anti-immunoglobulin used to detect the bound isotype. These assays employed biotinylated goat anti-IgG1 (#1070-08), Southern Biotechnology Associates), anti-IgG2a (#1080-08, SBA), anti-IgG2b (1090-08, SBA) […] (1100-08, SBA), and anti-IgM (1020-08, SBA). Antigens bound IgE was detected similarly, but using biotinylated EM95, a rat monoclonal antibody specific for mouse IgE. (Baniyash M, Eshhar Z, Eur J. Immunol. 14:799, 1984). Biotinylated goat anti-rat Ig was used as an added signal amplification step in the IgE ELISA. […] IgG1 was the major isotype seen in the animals which were injected with saline only, with a titer of 1/2700 for all three animals. […] The titers for IgM and IgG2b were similarly effected.

mice = experiment: Specificity of peptide-induced unresponsiveness (peptide Y vs MI-05); conditions: subcutaneous injection in saline
Balb/c mice = experiment: Oral rChain 1, single vs multiple doses, protocol 3
Method: Five groups of five age-matched Balb/c mice were fed on days −7, −5 and −2 with 250 μg rChain 1 (Groups 1 and 4), 750 μg rChain 1 (Group 2), or with PBS (Groups 3 and 5). On day 0, the mice in Groups 1-3 were challenged with a s.c. injection of 100 μg rChain 1 in CFA, while the mice in Groups 4 and 5 were not challenged. On day 12 the draining and mesenteric lymph nodes and spleens were removed for proliferation, IL-2, IL-4 and TGF-beta assays.
The draining lymph nodes (i.e., inguinal, paraaortic and popliteal), the mesenteric lymph nodes, and the spleen were surgically removed from the animals 10-12 days after antigen challenge. Cells from these tissues were suspended by being forced through a stainless steel mesh with a glass pestle. The cells were washed twice in RPMI 1640 medium with a 1% fetal calf serum (FCS) before culture. All cells were cultured at 37° C. in 5% CO2 in RPMI 1640 with 10% FCS (no. F4884, Sigma), 100 units of penicillin G per ml, 10 μg of streptomycin per ml, 10 mM glutamine, and 0.05 mM 2-mercaptoethanol. […]. Cells were cultured in triplicate, 0.2 ml per well at 4×10^6 cells per ml, in 96-well plates. Supernatants were removed from the wells after 24 hours to test for the production of IL-2 or IL-3 and were frozen to kill any transferred cells or removed after 48 hours for testing IL-4 production. Separate triplicate wells were incubated for 96 hours for the proliferation assay. The supernatants were kept at […] for several days to kill transferred cells.
Lymph node of spleen cells were plated in a flat bottom 96-well plate (4×10^5/well) in 100 μl medium. Peptide or recombinant protein or control solution (100 μl) is added to each well and the cells allowed to incubate for 1 day at 37° C. On day 2, the cultures were pulsed with [^3H] thymidine (1 μCi per well in 50 μl of medium; 1 Ci=37 GBq) for 4 to 6 hours, and on day 3, the plates were harvested with a 96-well harvester (Tomtec, Orange, Conn.) and counted on a Betaplate scintillation counter (Pharmacia, Upsaala Sweden).
To measure IL-2, supernatants were tested after thawing for the ability to support the growth of an IL-2-dependent line such as CTLL-2 (University of California, Berkeley). The cell line was maintained by passage in 10% supernatant of Con A-stimulated (5 μg/ml) rat spleen cells. This cell line is dependent almost exclusively on IL-2 for growth and survival, proliferating only weakly to high doses of recombinant IL-4. […] After a 24 hour incubation, the cells were pulsed with [^3H] thymidine (1 μCi per well in 50 μl of medium; 1 Ci=37 GBq) for 4 to 6 hours and the plates were harvested with a 96-well harvester (Tomtec, Orange, Conn.) and counted on a Betaplate scintillation counter (Pharmacia, Upsaala Sweden). […]

Question: What does the source list for “peptide Y: amino acid residues 29-55 from chain 1 of TRFP (SEQ. ID. NO: 18) (KALPVVLENARILKNCVDAKMTEEDKE)”?
Answer: duration of inhibitory effects of subcutaneous peptide injection on T cell function (mice primed to rch1): up to 56 days; IgG antibody specific for peptide Y ([1]; 10 days after peptide Y/CFA challenge, sera 1/900): little antibody specific for peptide Y; peptide Y specific IgG2a, IgG3, or IgE ([1]; mouse, in vivo): No binding above background; peptide Y specific IgG2b ([1]; peptide Y tolerized animals): no IgG2b binding above background; peptide Y specific serum IgM titer ([1]; peptide Y tolerized animals): 1/300; peptide Y specific IgG1 titer ([1]; peptide Y tolerized animals (two animals / one animal)): 1/300 and no binding above background; responses to MI-05 (mice): did not affect responses to MI-05; responsiveness to peptide Y (mice): decreased responsiveness to peptide Y

Question: For “recombinant chain 1: recombinant TRFP chain 1 expressed in E. coli”, which “production of IL-2 by mesenteric lymph node cells” value (Balb/c mice; cultured with rChain 1, Peptide X, and Peptide Y) is on record?
Answer: detectable tolerizing effect

Question: And the “spleen cell response to peptide X” value (Balb/c mice; mouse, in vivo)?
Answer: not changed

Question: And the “spleen cell response to rChain 1 and peptide Y” value (Balb/c mice; mouse, in vivo)?
Answer: moderately decreased

Question: What about the “draining node response, single oral 750 μg vs several doses of 250 μg” value (Balb/c mice; mouse, in vivo, po) of the same substance?
Answer: more effective

Reference: US7482008B1, “Human T cell reactive feline protein (TRFP) isolated from house dust and uses therefor” (Merck Patent GmbH, priority 1989, dated 2009)
